Assay [1] relates to Tamarindus indica. Description: Binding affinity to tamarind seed polysaccharide by NMR.
In assay [2] the test system is Tamarindus indica. Description: Binding affinity to tamarind seed polysaccharide by dynamic dialysis.

The source made the active and inactive calls. The calls are words filed in the database; no cut-off is given here.

As to `CN1CCC(=C2c3ccccc3CC(=O)c3sccc32)CC1`, the outcome with Tamarindus indica [1] and in the assay with Tamarindus indica [2] was Active.
